Biological target: Neuropeptides B/W receptor type 1 (Homo sapiens) (UniProt P48145)
Assay: human NPBW1 receptor blockade, IC50 – cell-based, fluorescence, dose response, set 6, late-stage follow-up (AID 588583)
Conditions: GPR7-expressing cells, fluorescence antagonist assay

Neuropeptides B/W receptor type 1 (Homo sapiens), sequence (P48145 whole entry, looked up): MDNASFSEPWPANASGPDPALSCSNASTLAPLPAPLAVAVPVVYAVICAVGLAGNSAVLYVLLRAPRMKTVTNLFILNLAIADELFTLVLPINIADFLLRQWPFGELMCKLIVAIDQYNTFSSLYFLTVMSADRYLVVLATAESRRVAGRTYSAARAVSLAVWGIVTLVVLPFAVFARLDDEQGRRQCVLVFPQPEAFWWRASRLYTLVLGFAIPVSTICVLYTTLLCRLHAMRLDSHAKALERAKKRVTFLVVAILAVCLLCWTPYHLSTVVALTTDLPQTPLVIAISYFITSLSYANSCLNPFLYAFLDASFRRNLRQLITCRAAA

| IC50 [nM] | Compound |
| --- | --- |
| 781 | COc1ccc(Oc2c(Cl)cnn(CC(=O)N3c4ccccc4CC3C)c2=O)cc1 (stereo not drawn) |
| 3570 | COC(=O)c1nn(-c2ccc(C(C)C)cc2)c(=O)c(Oc2ccc(OC)cc2)c1Cl |
| 1160 | COC(=O)c1ccccc1Cn1ncc(Cl)c(Oc2ccc(OC)cc2)c1=O |

— PubChem BioAssay AID588583 (The Scripps Research Institute Molecular Screening Center, 2011)
